Test results published in the NIST ThermoML archive (doi:10.1016/j.fluid.2015.06.045).
Where “and” joins values, the source holds several entries; their conditions need not be identical. Equal values may be shown once. Numbers after ± are expanded uncertainties.

Columns and labels:
[1] = Closed cell (Static) method
[2] = molar heat capacity at constant pressure

NCCO [2-aminoethan-1-ol]
vapor or sublimation pressure, [1]
Details | Crystal | Metastable liquid
258.17 K | 0.00078 ± 0.00011 kPa and 0.00077 ± 0.00011 kPa and 0.00076 ± 0.00011 kPa | –
263.17 K | 0.00142 ± 0.00011 kPa | –
268.17 K | 0.00264 ± 0.00013 kPa and 0.00265 ± 0.00013 kPa | –
273.65 K | 0.0052 ± 0.00015 kPa and 0.00519 ± 0.00015 kPa and 0.00518 ± 0.00015 kPa | 0.00646 ± 0.00016 kPa
275.65 K | 0.00658 ± 0.00017 kPa | 0.00785 ± 0.00018 kPa
278.15 K | 0.00883 ± 0.00019 kPa and 0.00884 ± 0.00019 kPa | 0.00997 ± 0.0002 kPa and 0.00998 ± 0.0002 kPa
280.65 K | 0.01183 ± 0.00022 kPa and 0.01185 ± 0.00022 kPa | 0.01262 ± 0.00023 kPa and 0.01263 ± 0.00023 kPa
283.15 K | 0.01576 ± 0.00026 kPa and 0.01575 ± 0.00026 kPa | 0.0159 ± 0.00026 kPa and 0.01591 ± 0.00026 kPa and 0.01587 ± 0.00026 kPa
285.65 K | – | 0.0199 ± 0.0003 kPa and 0.01992 ± 0.0003 kPa
288.15 K | – | 0.02494 ± 0.00035 kPa and 0.02505 ± 0.00035 kPa and 0.02501 ± 0.00035 kPa
290.65 K | – | 0.03092 ± 0.00041 kPa and 0.03099 ± 0.00041 kPa
293.15 K | – | 0.03842 ± 0.00048 kPa and 0.03848 ± 0.00048 kPa and 0.03849 ± 0.00048 kPa
295.65 K | – | 0.04735 ± 0.00057 kPa and 0.04742 ± 0.00057 kPa and 0.04744 ± 0.00057 kPa
298.15 K | – | 0.05877 ± 0.00069 kPa and 0.05861 ± 0.00069 kPa and 0.05859 ± 0.00069 kPa
300.65 K | – | 0.07124 ± 0.00081 kPa and 0.07125 ± 0.00081 kPa and 0.07143 ± 0.00081 kPa
303.15 K | – | 0.08725 ± 0.00097 kPa and 0.08736 ± 0.00097 kPa
303.16 K | – | 0.08722 ± 0.00097 kPa

[2], 100 kPa, Ideal gas
Details | molar heat capacity at constant pressure [J/K/mol]
100 K | 42.58 ± 2.1
150 K | 53.66 ± 2.7
200 K | 64.26 ± 3.2
250 K | 74.41 ± 3.7
273.15 K | 79.16 ± 4
298.15 K | 84.38 ± 4.2
300 K | 84.78 ± 4.2
400 K | 106.54 ± 5.3
500 K | 127.9 ± 6.4
600 K | 146.98 ± 7.3
700 K | 163.08 ± 8.2
800 K | 176.25 ± 8.8
900 K | 186.86 ± 9.3
1000 K | 195.39 ± 9.8

[2], 101.33 kPa, Metastable liquid, Large sample (1 g) DSC
Details | molar heat capacity at constant pressure
265.75 K | 160.55 ± 2.7 J/K/mol
270.85 K | 161.8 ± 2.8 J/K/mol
275.96 K | 162.46 ± 2.8 J/K/mol
281.07 K | 163.71 ± 2.8 J/K/mol
286.17 K | 164.54 ± 2.8 J/K/mol
291.28 K | 165.54 ± 2.8 J/K/mol and 165.87 ± 2.9 J/K/mol
296.38 K | 166.54 ± 2.9 J/K/mol and 167.29 ± 2.9 J/K/mol
301.49 K | 168.12 ± 2.9 J/K/mol and 167.79 ± 2.9 J/K/mol
306.59 K | 169.2 ± 2.9 J/K/mol and 169.12 ± 2.9 J/K/mol
311.69 K | 170.28 ± 2.9 J/K/mol and 170.53 ± 3 J/K/mol
316.8 K | 171.36 ± 3 J/K/mol and 171.69 ± 3 J/K/mol
321.9 K | 172.61 ± 3 J/K/mol and 173.11 ± 3 J/K/mol
327.01 K | 174.1 ± 3 J/K/mol and 174.27 ± 3 J/K/mol
332.12 K | 175.68 ± 3.1 J/K/mol and 175.35 ± 3.1 J/K/mol
337.22 K | 176.68 ± 3.1 J/K/mol and 177.18 ± 3.1 J/K/mol
342.33 K | 178.1 ± 3.1 J/K/mol and 178.59 ± 3.1 J/K/mol
347.43 K | 179.51 ± 3.1 J/K/mol and 179.43 ± 3.1 J/K/mol
352.54 K | 181.26 ± 3.2 J/K/mol and 181.34 ± 3.2 J/K/mol

CN1CCCC1=O [N-methylpyrrolidone]
[1], Liquid
Details | vapor or sublimation pressure
273.65 K | 0.00631 ± 0.00016 kPa and 0.0063 ± 0.00016 kPa
278.15 K | 0.0094 ± 0.00019 kPa and 0.00937 ± 0.00019 kPa and 0.00938 ± 0.00019 kPa
283.15 K | 0.01432 ± 0.00024 kPa
288.15 K | 0.02159 ± 0.00032 kPa and 0.02162 ± 0.00032 kPa
293.15 K | 0.03193 ± 0.00042 kPa and 0.03195 ± 0.00042 kPa and 0.03196 ± 0.00042 kPa
298.15 K | 0.04664 ± 0.00057 kPa and 0.04665 ± 0.00057 kPa and 0.0466 ± 0.00057 kPa
303.15 K | 0.06708 ± 0.00077 kPa and 0.06709 ± 0.00077 kPa
308.15 K | 0.09518 ± 0.001 kPa and 0.09516 ± 0.001 kPa
308.17 K | 0.0951 ± 0.001 kPa

[2], 100 kPa, Ideal gas
Details | molar heat capacity at constant pressure [J/K/mol]
100 K | 59.31 ± 3
150 K | 72.28 ± 3.6
200 K | 85.04 ± 4.2
250 K | 99.6 ± 5
273.15 K | 106.98 ± 5.3
298.15 K | 115.26 ± 5.8
300 K | 115.89 ± 5.8
400 K | 149.87 ± 7.5
500 K | 180.98 ± 9.1
600 K | 207.43 ± 10
700 K | 229.6 ± 11
800 K | 248.26 ± 12
900 K | 264.08 ± 13
1000 K | 277.55 ± 14

[2], 101.33 kPa, Liquid, Large sample (1 g) DSC
Details | molar heat capacity at constant pressure
265.75 K | 168.2 ± 2.9 J/K/mol and 168.12 ± 2.9 J/K/mol
270.85 K | 169.2 ± 2.9 J/K/mol and 169.03 ± 2.9 J/K/mol
275.96 K | 169.62 ± 2.9 J/K/mol and 169.86 ± 2.9 J/K/mol
281.07 K | 170.95 ± 3 J/K/mol and 170.78 ± 3 J/K/mol
286.17 K | 171.86 ± 3 J/K/mol
291.28 K | 173.36 ± 3 J/K/mol and 172.86 ± 3 J/K/mol
296.38 K | 173.94 ± 3 J/K/mol and 174.27 ± 3 J/K/mol
301.49 K | 175.35 ± 3.1 J/K/mol and 175.52 ± 3.1 J/K/mol
306.59 K | 176.52 ± 3.1 J/K/mol
311.69 K | 177.93 ± 3.1 J/K/mol and 177.85 ± 3.1 J/K/mol
316.8 K | 178.93 ± 3.1 J/K/mol and 179.09 ± 3.1 J/K/mol
321.9 K | 180.01 ± 3.2 J/K/mol and 180.42 ± 3.2 J/K/mol
327.01 K | 181.84 ± 3.2 J/K/mol and 181.75 ± 3.2 J/K/mol
332.12 K | 183.25 ± 3.2 J/K/mol
337.22 K | 184.41 ± 3.2 J/K/mol and 184.66 ± 3.2 J/K/mol
342.33 K | 185.75 ± 3.2 J/K/mol and 186.16 ± 3.2 J/K/mol
347.43 K | 187.24 ± 3.2 J/K/mol
352.54 K | 188.57 ± 3.2 J/K/mol and 188.82 ± 3.2 J/K/mol
